Measurements: BindingDB's records for doi:10.1016/S0893-133X(01)00298-6 (Eli Lilly, 2001)
“And” between values parts separate entries of the source, which are not always exact repeats. Equal values may be shown once.

Legend:
[1] = target: 5-hydroxytryptamine receptor 1A (Homo sapiens, UniProt P08908)
[2] = target: Amine oxidase [flavin-containing] A (Rattus norvegicus, UniProt P21396)
[3] = target: Amine oxidase [flavin-containing] B (Rattus norvegicus, UniProt P19643)
[4] = target: Mu-type opioid receptor (Rattus norvegicus, UniProt P33535)
Mu-type opioid receptor, sequence (P33535 whole entry): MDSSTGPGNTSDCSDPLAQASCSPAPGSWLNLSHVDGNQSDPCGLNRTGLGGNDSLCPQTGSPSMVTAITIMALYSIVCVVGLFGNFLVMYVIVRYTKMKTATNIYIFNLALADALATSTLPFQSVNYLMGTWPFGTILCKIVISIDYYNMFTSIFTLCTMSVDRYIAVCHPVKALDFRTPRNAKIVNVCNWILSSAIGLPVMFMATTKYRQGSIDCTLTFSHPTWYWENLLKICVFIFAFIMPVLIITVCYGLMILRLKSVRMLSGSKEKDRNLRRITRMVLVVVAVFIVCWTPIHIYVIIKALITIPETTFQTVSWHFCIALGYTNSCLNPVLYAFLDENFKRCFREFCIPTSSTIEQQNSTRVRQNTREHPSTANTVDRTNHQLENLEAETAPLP

[5] = target: Kappa-type opioid receptor (Cavia porcellus, UniProt P41144)
[6] = target: 5-hydroxytryptamine receptor 6 (Homo sapiens, UniProt P50406)
[7] = target: Nitric oxide synthase, brain (Rattus norvegicus, UniProt P29476)
[8] = target: Delta-type opioid receptor (Rattus norvegicus, UniProt P33533)
[9] = target: 5-hydroxytryptamine receptor 1D (Homo sapiens, UniProt P28221)
5-hydroxytryptamine receptor 1D, sequence (P28221 whole entry): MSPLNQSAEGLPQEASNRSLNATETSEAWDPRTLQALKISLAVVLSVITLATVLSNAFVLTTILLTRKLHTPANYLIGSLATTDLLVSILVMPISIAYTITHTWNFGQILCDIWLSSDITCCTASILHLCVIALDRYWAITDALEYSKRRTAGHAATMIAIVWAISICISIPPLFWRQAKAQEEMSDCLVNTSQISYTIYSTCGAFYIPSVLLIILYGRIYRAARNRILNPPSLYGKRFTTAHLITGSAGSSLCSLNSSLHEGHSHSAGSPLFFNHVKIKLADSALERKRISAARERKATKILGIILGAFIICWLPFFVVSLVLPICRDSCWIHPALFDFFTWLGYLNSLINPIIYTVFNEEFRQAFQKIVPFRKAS

[10] = target: Alpha-1B adrenergic receptor (Rattus norvegicus, UniProt P15823)
[11] = target: Sigma non-opioid intracellular receptor 1 (Cavia porcellus, UniProt Q60492)
Sigma non-opioid intracellular receptor 1, sequence (Q60492 whole entry): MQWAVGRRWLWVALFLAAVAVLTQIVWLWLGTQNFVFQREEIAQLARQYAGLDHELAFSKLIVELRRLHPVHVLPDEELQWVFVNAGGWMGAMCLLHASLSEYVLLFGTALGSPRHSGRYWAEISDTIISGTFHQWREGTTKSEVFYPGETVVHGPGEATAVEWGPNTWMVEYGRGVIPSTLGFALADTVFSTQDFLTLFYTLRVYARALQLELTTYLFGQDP

[12] = target: Adenosine receptor A1 (Rattus norvegicus, UniProt P25099)
[13] = target: D(2) dopamine receptor (Homo sapiens, UniProt P14416)
[14] = target: Alpha-1A adrenergic receptor (Homo sapiens, UniProt P35348)
[15] = target: ATP-sensitive inward rectifier potassium channel 1 (Rattus norvegicus, UniProt P35560)
ATP-sensitive inward rectifier potassium channel 1, sequence (P35560 whole entry): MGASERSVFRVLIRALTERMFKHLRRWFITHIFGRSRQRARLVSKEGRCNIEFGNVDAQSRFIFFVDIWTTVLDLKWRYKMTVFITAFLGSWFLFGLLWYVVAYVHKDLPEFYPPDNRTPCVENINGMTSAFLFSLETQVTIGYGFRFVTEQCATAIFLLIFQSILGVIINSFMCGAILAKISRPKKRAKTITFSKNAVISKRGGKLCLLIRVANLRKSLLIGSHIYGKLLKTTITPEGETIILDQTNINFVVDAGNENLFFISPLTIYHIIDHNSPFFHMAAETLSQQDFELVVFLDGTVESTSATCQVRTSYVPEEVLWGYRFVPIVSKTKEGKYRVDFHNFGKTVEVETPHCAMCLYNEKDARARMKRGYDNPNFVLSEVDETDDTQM

[16] = target: Muscarinic acetylcholine receptor M2 (Homo sapiens, UniProt P08172)
Muscarinic acetylcholine receptor M2, sequence (P08172 whole entry): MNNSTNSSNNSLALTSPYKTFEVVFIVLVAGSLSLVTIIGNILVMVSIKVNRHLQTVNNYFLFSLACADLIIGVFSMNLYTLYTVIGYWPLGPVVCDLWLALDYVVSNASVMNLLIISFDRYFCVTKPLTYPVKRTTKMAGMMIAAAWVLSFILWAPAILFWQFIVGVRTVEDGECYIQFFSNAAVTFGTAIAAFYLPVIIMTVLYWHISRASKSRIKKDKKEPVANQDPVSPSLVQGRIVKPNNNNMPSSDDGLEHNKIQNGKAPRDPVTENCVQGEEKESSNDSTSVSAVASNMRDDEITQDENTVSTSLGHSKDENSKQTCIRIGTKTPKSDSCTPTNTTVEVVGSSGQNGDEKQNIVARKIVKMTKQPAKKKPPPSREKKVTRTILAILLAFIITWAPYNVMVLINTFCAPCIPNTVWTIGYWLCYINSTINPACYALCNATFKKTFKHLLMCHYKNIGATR

[17] = target: Gamma-aminobutyric acid receptor subunit alpha-1 (Rattus norvegicus, UniProt P62813)
[18] = target: Adenosine receptor A2b (Bos taurus, UniProt Q1LZD0)
[19] = target: Gastrin/cholecystokinin type B receptor (Mus musculus, UniProt P56481)
Gastrin/cholecystokinin type B receptor, sequence (P56481 whole entry): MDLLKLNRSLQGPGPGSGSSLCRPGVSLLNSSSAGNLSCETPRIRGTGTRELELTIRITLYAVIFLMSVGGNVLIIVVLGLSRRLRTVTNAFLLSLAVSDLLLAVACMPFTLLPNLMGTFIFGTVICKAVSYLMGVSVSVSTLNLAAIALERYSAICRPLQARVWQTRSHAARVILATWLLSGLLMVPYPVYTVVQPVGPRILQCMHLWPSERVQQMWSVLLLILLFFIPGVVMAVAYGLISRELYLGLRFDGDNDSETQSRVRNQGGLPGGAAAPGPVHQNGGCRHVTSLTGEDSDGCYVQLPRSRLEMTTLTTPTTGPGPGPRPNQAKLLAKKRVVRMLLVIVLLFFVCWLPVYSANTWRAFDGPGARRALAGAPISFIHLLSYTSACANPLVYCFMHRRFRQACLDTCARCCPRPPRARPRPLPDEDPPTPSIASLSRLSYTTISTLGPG

[20] = target: D(1A) dopamine receptor (Rattus norvegicus, UniProt P18901)
D(1A) dopamine receptor, sequence (P18901 whole entry): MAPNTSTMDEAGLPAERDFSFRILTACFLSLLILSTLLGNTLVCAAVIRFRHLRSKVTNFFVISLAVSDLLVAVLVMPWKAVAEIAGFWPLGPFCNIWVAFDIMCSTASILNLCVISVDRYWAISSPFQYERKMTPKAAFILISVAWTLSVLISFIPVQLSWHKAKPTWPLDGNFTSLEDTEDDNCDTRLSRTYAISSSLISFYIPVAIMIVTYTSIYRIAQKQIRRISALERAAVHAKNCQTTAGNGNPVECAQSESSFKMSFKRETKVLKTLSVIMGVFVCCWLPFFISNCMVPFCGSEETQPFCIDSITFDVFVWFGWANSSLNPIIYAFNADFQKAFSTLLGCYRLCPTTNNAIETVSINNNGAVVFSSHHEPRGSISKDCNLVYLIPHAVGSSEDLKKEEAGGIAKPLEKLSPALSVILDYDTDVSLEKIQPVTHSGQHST

[21] = target: Gamma-aminobutyric acid receptor subunit alpha-1 (Bos taurus, UniProt P08219)
[22] = target: Glutamate receptor 3 (Rattus norvegicus, UniProt P19492)
[23] = target: Glutamate receptor ionotropic, kainate 1 (Rattus norvegicus, UniProt P22756)
Glutamate receptor ionotropic, kainate 1, sequence (P22756 whole entry): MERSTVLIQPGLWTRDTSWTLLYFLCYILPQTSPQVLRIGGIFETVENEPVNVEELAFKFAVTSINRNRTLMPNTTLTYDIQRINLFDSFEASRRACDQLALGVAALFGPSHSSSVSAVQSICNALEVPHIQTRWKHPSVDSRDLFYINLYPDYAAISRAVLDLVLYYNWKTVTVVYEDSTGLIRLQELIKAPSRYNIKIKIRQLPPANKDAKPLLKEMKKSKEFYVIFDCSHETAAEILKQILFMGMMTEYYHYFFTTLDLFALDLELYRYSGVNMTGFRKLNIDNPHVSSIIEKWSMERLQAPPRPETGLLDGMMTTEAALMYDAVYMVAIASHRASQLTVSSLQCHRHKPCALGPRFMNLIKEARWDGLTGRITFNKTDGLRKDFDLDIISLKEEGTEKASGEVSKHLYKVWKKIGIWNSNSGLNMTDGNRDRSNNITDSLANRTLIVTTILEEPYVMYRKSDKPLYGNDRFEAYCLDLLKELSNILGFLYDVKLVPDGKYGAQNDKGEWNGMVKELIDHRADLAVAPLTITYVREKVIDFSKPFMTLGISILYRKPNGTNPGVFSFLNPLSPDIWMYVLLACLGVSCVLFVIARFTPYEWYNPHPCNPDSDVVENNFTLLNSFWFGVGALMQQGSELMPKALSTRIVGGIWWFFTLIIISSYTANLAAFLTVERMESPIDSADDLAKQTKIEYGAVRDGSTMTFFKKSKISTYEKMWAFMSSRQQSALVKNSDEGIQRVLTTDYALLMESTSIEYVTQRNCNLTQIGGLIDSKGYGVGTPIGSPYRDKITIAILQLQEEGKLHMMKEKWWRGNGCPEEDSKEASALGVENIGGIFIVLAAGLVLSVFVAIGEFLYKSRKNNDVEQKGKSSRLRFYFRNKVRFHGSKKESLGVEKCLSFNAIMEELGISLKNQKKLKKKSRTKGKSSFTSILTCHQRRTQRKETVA

[24] = target: Glycine receptor subunit alpha-1 (Rattus norvegicus, UniProt P07727)
[25] = target: Phosphatidylinositol 3,4,5-trisphosphate 5-phosphatase 2 (Rattus norvegicus, UniProt Q9WVR3)
[26] = target: Substance-K receptor (Rattus norvegicus, UniProt P16610)
[27] = target: Alpha-bungarotoxin (Bungarus multicinctus, UniProt P60615)
Alpha-bungarotoxin, sequence (P60615 whole entry): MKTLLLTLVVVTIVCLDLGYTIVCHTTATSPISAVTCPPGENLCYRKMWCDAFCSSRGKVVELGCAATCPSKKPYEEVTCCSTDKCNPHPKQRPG

[28] = target: Calcium-activated potassium channel subunit beta-1 (Rattus norvegicus, UniProt P97678)
Calcium-activated potassium channel subunit beta-1, sequence (P97678 whole entry): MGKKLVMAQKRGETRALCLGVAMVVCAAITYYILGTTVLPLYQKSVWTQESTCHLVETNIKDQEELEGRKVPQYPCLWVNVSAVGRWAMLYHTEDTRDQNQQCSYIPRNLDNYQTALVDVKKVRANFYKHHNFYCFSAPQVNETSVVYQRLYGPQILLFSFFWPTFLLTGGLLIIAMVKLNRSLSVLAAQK

[29] = target: Sodium channel protein type 1 subunit alpha (Rattus norvegicus, UniProt P04774)
[30] = target: Sodium channel protein type 2 subunit alpha (Rattus norvegicus, UniProt P04775)
[31] = target: Alpha-2A adrenergic receptor (Homo sapiens, UniProt P08913)
Alpha-2A adrenergic receptor, sequence (P08913 whole entry): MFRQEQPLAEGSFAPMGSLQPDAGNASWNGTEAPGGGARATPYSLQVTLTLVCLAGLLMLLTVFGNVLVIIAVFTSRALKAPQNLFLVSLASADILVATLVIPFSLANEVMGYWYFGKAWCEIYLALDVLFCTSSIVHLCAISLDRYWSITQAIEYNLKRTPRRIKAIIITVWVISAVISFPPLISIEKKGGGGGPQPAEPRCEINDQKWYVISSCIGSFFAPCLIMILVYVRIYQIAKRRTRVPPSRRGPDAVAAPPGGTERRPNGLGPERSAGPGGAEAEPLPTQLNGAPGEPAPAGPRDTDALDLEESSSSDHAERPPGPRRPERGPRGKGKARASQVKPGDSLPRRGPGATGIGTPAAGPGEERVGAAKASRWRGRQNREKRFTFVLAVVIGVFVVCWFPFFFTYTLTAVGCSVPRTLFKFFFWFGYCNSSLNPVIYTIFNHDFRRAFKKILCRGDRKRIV

5-hydroxytryptamine receptor 1A, sequence (P08908 whole entry): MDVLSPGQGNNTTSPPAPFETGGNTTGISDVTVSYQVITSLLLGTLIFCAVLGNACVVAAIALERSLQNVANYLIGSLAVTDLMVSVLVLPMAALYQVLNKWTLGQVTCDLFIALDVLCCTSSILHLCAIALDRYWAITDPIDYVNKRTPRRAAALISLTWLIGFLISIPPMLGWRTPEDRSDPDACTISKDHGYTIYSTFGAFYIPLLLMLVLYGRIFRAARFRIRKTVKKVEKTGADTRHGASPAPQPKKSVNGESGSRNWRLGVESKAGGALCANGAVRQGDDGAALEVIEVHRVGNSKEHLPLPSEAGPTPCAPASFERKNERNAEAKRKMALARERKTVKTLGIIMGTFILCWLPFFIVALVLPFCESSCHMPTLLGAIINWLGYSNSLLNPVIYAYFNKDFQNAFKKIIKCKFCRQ

SMILES | Ki [1] [nM] | Ki [2] [nM] | Ki [3] [nM] | Ki [4] [nM] | Ki [5] [nM] | Ki [6] [nM] | Ki [7] [nM] | Ki [8] [nM] | Ki [9] [nM] | Ki [10] [nM] | Ki [11] [nM] | Ki [12] [nM] | Ki [13] [nM] | Ki [15] [nM] | Ki [16] | Ki [17] [nM] | Ki [18] [nM] | Ki [19] [nM] | Ki [20] [nM] | Ki [21] [nM] | also measured
COc1ccc(C(CN(C)C)C2(O)CCCCC2)cc1 (stereo unspecified) [NSC_62923] | > 10000 | > 10000 | > 10000 | 1000 | 1000 | 2790 | 1000 | 1000 | > 10000 | > 1000 | 1000 | > 1000 | > 10000 | > 1000 | > 10000 nM and 1000 nM | > 1000 | 1000 | > 1000 | 1000 | > 1000 | Ki [14]: > 10000 nM; Ki [22]: > 1000 nM; Ki [23]: 1000 nM; Ki [24]: 1000 nM; Ki [25]: 1000 nM; Ki [26]: 1000 nM; Ki [27]: 1000 nM; Ki [28]: 1000 nM; Ki [29]: > 1000 nM; Ki [30]: > 1000 nM; Ki [31]: > 10000 nM and 1000 nM
CNCC[C@H](Oc1cccc2ccccc12)c1cccs1 [DULOXETINE] | 5000 | > 10000 | > 10000 | 1000 | 1000 | 419 | 1000 | 1000 | 3000 | > 1000 | 1000 | > 1000 | > 10000 | > 1000 | 3000 nM and 1000 nM | > 1000 | 1000 | > 1000 | 1000 | > 1000 | Ki [22]: > 1000 nM; Ki [23]: 1000 nM; Ki [24]: 1000 nM; Ki [25]: 1000 nM; Ki [26]: 1000 nM; Ki [27]: 1000 nM; Ki [28]: 1000 nM; Ki [29]: > 1000 nM; Ki [30]: > 1000 nM; Ki [31]: 8600 nM and 1000 nM
